Test results: PMC9866693, “Novel Benzimidazole Derived Imine Ligand and Its Co(III) and Cu(II) Complexes as Anticancer Agents: Chemical Synthesis, DFT Studies, In Vitro and In Vivo Biological Investigations” (Pharmaceuticals, 2023)

Experiments:
A549 cell line = experiment: MTT anti-proliferative assay, A549; type: cell-based; details: Homo sapiens, A549, 48 h, incubated for 2 days, read-out: IC50 against A549
Method: (§1) In vitro anti-proliferative assays of the cultured cell lines A549, EAC, SIHA and NIH3T3, under laboratory conditions, were performed. The cells were developed in Dulbecco’s Modified Eagle Medium (DMEM) (Gibco-Invitrogen, Austin, TX, USA), in addition with heat-inactivated Foetel Bovine Serum (Invitrogen, Waltham, MA, USA), Pen Strep and followed by the addition of NaHCO3 (0.40%). The resulting component was incubated at 37 °C and maintained at 97% humidity and 90% air atmosphere. Exactly 10 µM of the synthesized ligand HBMF and its complexes (C1–C4), prepared using DMSO as a solvent, was used initially to assess their cytotoxicity and anti-proliferative activity in vitro using the MTT assay as described previously. 5-fluorouracil was used as a positive control and an appropriate vehicle control.
(§2) The various cell lines, such as A549, EAC, SIHA and NI3T3, were used initially to investigate the extent of preliminary proliferation against the MTT assay. The synthesized ligand, the complexes, and 5-fluorouracil were treated with all four cell lines as mentioned above. The cells were treated in the absence and presence of the ligand and its complexes and were incubated for 2 days. The effect of the proliferating cells and the color change was investigated by adding 5 mg/mL of 3-(4,5-Dimethylthiazol-2-yl)-2,5-Diphenyltetrazolium Bromide (MTT) reagent.

[1] = test system: Ehrlich–Lettre ascites carcinoma (EAC) cell line; experiment: MTT anti-proliferative assay, EAC; type: cell-based; details: 48 h, incubated for 2 days, read-out: IC50 against EAC
Method: as §1, §2

SIHA cell line = experiment: MTT anti-proliferative assay, SIHA; type: cell-based; details: Homo sapiens, 48 h, incubated for 2 days, read-out: IC50 against SIHA
Method: as §1, §2

NIH3T3 cell line = experiment: MTT anti-proliferative assay, NIH3T3; type: cell-based; details: Mus musculus, NIH3T3, 48 h, incubated for 2 days, read-out: IC50 against NIH3T3
Method: as §1, §2

[2] = Solubility and stability observations; type: physicochemical
Excerpt: Scheme 1 depicts the general route for the preparation of HBMF. Neutralization of the aqueous solution of 2-(aminomethyl) benzimidazole hydrochloride (0.100 g, 0.4543 mmol) was done in the first step of synthesis using an aqueous solution of potassium carbonate (0.0753 g, 0.5451 mmol) and then mixed with a methanolic solution of 5-fluorosalicyladihyde (0.0630 g, 0.4543 mmol). The resulting mixture was stirred at room temperature using a magnetic stirrer. The yellow precipitate obtained was filtered off and washed with water followed by petroleum ether and dried under vacuum. The completion of the reaction was monitored on pre-coated silica gel plates by the thin layer chromatography (TLC) method using chloroform and methanol as the solvent system in the ratio (9:1). The Schiff base thus obtained was insoluble in water but soluble in methanol, DMSO, etc. Elemental analysis for HBMF (C15H11FN3O): Calculated (%): C, 62.91; H, 4.33; F, 7.05; N, 14.59; O, 5.90. Found (%): C, 62.95; H, 4.36; F, 7.09; N, 14.65; O, 5.94. ^1H NMR (CDCl3, 400 MHz) ð: 5.09 [C1] (s, 2H, CH2); 6.86 [C7 and C6] (dd, 2H, Ar-H); 7.04–7.06 [C12 and C13] (t, 1H, Ar-H); 7.25 [C4] (d, 2H, Ar-H); 7.57 [C11] (d, 1H, Ar-H); 7.58 [C14] […]
Millimolar solutions of all the prepared metal complexes (C1-0.599, C2-0.615, C3-0.595, and C4-0.629 […]) were prepared using DMSO solvent and the conductance was measured (Table S1). […]

SMILES	IC50 (A549 cell line)	IC50 [1]	IC50 (SIHA cell line)	IC50 (NIH3T3 cell line)	Solubility in methanol, DMSO ([2]; methanol, DMSO, etc.)	Solubility in water ([2]; water)
Oc1ccc(F)cc1/C=N/Cc1nc2ccccc2[nH]1 [HBMF, 2-((E)-((1H-benzo[d]-2-yl)methylimino)methyl)-4-fluorophenol]	54.21 ± 0.4 µM	48 ± 0.3 µM	53.4 ± 0.7 µM	52.6 ± 0.4 µM	soluble	insoluble
O=c1[nH]cc(F)c(=O)[nH]1 [5‐FU, 5-fluorouracil, reference compound]	7.2 ± 0.5 µM	6.1 ± 1.8 µM	6.2 ± 0.7 µM	7.8 µM		
